Source: EP0462621A2, “Use of particular compounds for manufacture of pharmaceutical formulations for treatment against various parasites, mycoplasmas, other indications and other infections” (Prendergast, Patrick Thomas, priority 1990, dated 1991)

Assays:
RH strain T. gondii = assay: Growth of Toxoplasma gondii in human foreskin fibroblasts, tritiated uracil incorporation; type: cell-based; conditions: various concentrations; Figure 24
Protocol: An experiment was conducted to evaluate the in-vitro effects of IPA on Toxoplasma Gondii by infecting human foreskin fibroblast monolayers (four replicates per condition) with RH strain T. gondii in the presence of various concentrations of IPA dissolved in Eagle's minimum essential medium without fetal bovine serum. After an initial four hour period of infection, the media and any T. gondii which had not entered the host cells were removed and replaced by media containing 1 u.M tritiated uracil per milliter, and incubated overnight. The mono-layers were lysed, nucleic acids precipitated by trichloroacetic acid, and the precipitates recovered on glass fiber filters. Radioactivity on the filters was measured in a Beckman scintillation spectrometer. Controls included fibroblast monolayers without T. gondii (cell control) and fibroblast monolayers infected by the same inoculum of T. gondii as the IPA treated monolayers (Tg control). The units of uracil incorporation are somewhat lower here because of the lower inoculum of T. gondii.

L major/L mexicana [1] = assay: Amastigote-promastigote (AM-PRO) transformation, in-vitro; type: cell-based; conditions: Lm.
L donovani = assay: Leishmania promastigote (PRO) in-vitro screen; type: cell-based; conditions: Ld.
From the text: (§1) Following initial infection, the amastigote is the only form present in the mammalian host, surviving and dividing in various macrophage populations. Differences between the promastigote and amastigote in form and habitat are not matched by known biochemical dissimilarities. However, the drug susceptibility of the cultured promastigote, used in many early chemotherapy screens, contrasts markedly with that of the amastigote (see Table 1, below), most importantly to the clinically used pentavalent antimonials - sodium stibogluconate (Pentostam) and meglumine antimoniate (Glucantime).
(§2) Amastigotes of Leishmania can be cultivated in a wide range of mammalian cells, some of which may be used in in-vitro screens. These include (1) a Sticker dog sarcoma (fibroblast) cell line, (2) transformed rodent macrophage cell lines, (3) primary isolated mouse peritoneal macrophages (MP mo), and (4) human monocyte-derived macrophages (HM mo). The methods are similar for all models. Amastigote or promastigote infected cells are maintained in a medium containing the drug for 4-7 days, at 37 C for L. donovani and 33-35 C for L. major and L. mexicana. Drug activity is then assessed by counting (I) the number of infected host cells and/or (II) the number of amastigotes/100 host cells.
(§3) In-vitro and in-vivo models were used to test activities of a selection of many compounds. Those activities are summarized in Tables 1-3, showing variation between systems and species. Activities measured in the MP mo and HM mo models have shown the best correlation with results obtained in hamster and mouse models.

L major/L mexicana [2] = assay: Leishmania promastigote (PRO) in-vitro screen; type: cell-based; conditions: Lm.
From the text: as §1, §2, §3

CAEV = assay: Experiment la(c): Himalayan Tahr ovary cells, CAEV, p28 radioimmunoassay; type: cell-based, caprine arthritis encephalitis virus (CAEV); conditions: as read from Figure 15
From the text: A procedure similar to that followed in Experiment la (a) was followed using Himalayan Tahr ovary cells exposed to caprine arthritis encephalitis virus (CAEV), a lentivirus related to HIV-1 which causes leukoen- cephalitis and arthritis in goats. A radioimmunoassay to detect CAEV p28 was used to determine the presence of the virus.

HIV-I = assay: Experiment la(a): macrophage cells, HIV-I, p24 antigen capture radio-immunoassay; type: cell-based; conditions: for TITER: control titer 100000; for wells positive for HIV-I p24, LOG VIRUS DILUTION -1 / wells positive for HIV-I p24, LOG VIRUS DILUTION -2 / wells positive for HIV-I p24, LOG VIRUS DILUTION -3 / wells positive for HIV-I p24, LOG VIRUS DILUTION -4 / wells positive for HIV-I p24, LOG VIRUS DILUTION -5 / wells positive for HIV-I p24, LOG VIRUS DILUTION -6: duplicate runs
Protocol: Fresh macrophage cultures were obtained by incubation of mononuclear cells obtained from a leukopak directly in the wells of a microtiter plate having 6 wells per row. After removal of non-adherent cells, each row of the adherent macrophages was infected with 10-fold serial dilutions of HIV-I, with the use of polybrene to enhance uptake of the virus. After one to two hours, the virus inoculum was removed and replaced with fresh normal growth medium. The fresh medium for each row contained a particular concentration of AZT, dideoxy cytidine (ddC), or compound la, as indicated by the left-hand column of Table la(a). The first row of wells acted as a control, and to it was added fresh medium containing none of the three drugs. Medium levels were maintained for two to four weeks to allow replication of the virus to take place, with at least one complete fluid change to remove residual virus inoculum. The contents of each well were then tested for the level of HIV p24 antigen present using a commercially available antigen capture kit employing a radio-immunoassay which can detect as little as 10'^9gm of p24 present in a sample. The above procedure was done in duplicate runs.
The results were interpreted as follows: 2/2, for example, means that both the corresponding wells of both runs were positive for HIV-I p24, while 0/2 means that neither well was positive. The titers are given in the next to last column; where 1/2 wells was positive, an intermediate value was given to the titer that is half way between the two dilutions when calculated on a logarithmic scale. 3 µM IPA was positive in both wells at a dilution of 1/10,000 and in neither well at 1/100,000. Thus, one half log interval between 10^4 and 10^5 is 10^4.5, or 30,000.

With `CC(C)=CCNc1ncnc2c1ncn2[C@@H]1O[C@H](CO)[C@@H](O)[C@H]1O` [IPA, N^6-(Δ^2-isopentenyl) adenosine] the “effect on the growth of T. gondii” value (RH strain T. gondii) was “inhibitory effect”, the “Activity, AM-PRO transform-ation” value (L major/L mexicana [1]) was “+ +” and the “Activity, PRO” value (L donovani) was “+ +”. For the same molecule, the “Activity, PRO” value (L major/L mexicana [2]) was “+”, the IC50 (CAEV) was 8 µM and the IC90 (CAEV) was 30 µM. It also gave an activity at 3 µM (HIV-I; Human immunodeficiency virus 1, Macrophage, drug 3 μM, titer relative to control, read-out: PERCENT OF CONTROL) of 30%, an activity at 10 µM (HIV-I; Human immunodeficiency virus 1, Macrophage, drug 10 μM, titer relative to control, read-out: PERCENT OF CONTROL) of 10% and an activity at 30 µM (HIV-I; Human immunodeficiency virus 1, Macrophage, drug 30 μM, titer relative to control, read-out: PERCENT OF CONTROL) of 1%. The activity at 100 µM (HIV-I; Human immunodeficiency virus 1, Macrophage, drug 100 μM, titer relative to control, read-out: PERCENT OF CONTROL) was 0.3%, the activity at 300 µM (HIV-I; Human immunodeficiency virus 1, Macrophage, drug 300 μM, titer relative to control, read-out: PERCENT OF CONTROL) was 0% and the activity at 1000 µM (HIV-I; Human immunodeficiency virus 1, Macrophage, drug 1000 μM, titer relative to control, read-out: PERCENT OF CONTROL) was 0%. For the same molecule, the TITER (HIV-I; drug 3 μM) was 30000, the “wells positive for HIV-I p24, LOG VIRUS DILUTION -1” value (HIV-I; drug 3 μM) was 2/2 and the “wells positive for HIV-I p24, LOG VIRUS DILUTION -2” value (HIV-I; drug 3 μM) was 2/2. The “wells positive for HIV-I p24, LOG VIRUS DILUTION -3” value (HIV-I; drug 3 μM) was 2/2, the “wells positive for HIV-I p24, LOG VIRUS DILUTION -4” value (HIV-I; drug 3 μM) was 2/2 and the “wells positive for HIV-I p24, LOG VIRUS DILUTION -5” value (HIV-I; drug 3 μM) was 0/2. The “wells positive for HIV-I p24, LOG VIRUS DILUTION -6” value (HIV-I; drug 3 μM) was 0/2, the TITER (HIV-I; drug 10 μM) was 10000 and the “wells positive for HIV-I p24, LOG VIRUS DILUTION -1” value (HIV-I; drug 10 μM) was 2/2. For the same molecule, the “wells positive for HIV-I p24, LOG VIRUS DILUTION -2” value (HIV-I; drug 10 μM) was 2/2, the “wells positive for HIV-I p24, LOG VIRUS DILUTION -3” value (HIV-I; drug 10 μM) was 2/2 and the “wells positive for HIV-I p24, LOG VIRUS DILUTION -4” value (HIV-I; drug 10 μM) was 1/2. The “wells positive for HIV-I p24, LOG VIRUS DILUTION -5” value (HIV-I; drug 10 μM) was 0/2, the “wells positive for HIV-I p24, LOG VIRUS DILUTION -6” value (HIV-I; drug 10 μM) was 0/2 and the TITER (HIV-I; drug 30 μM) was 1000. The “wells positive for HIV-I p24, LOG VIRUS DILUTION -1” value (HIV-I; drug 30 μM) was 2/2, the “wells positive for HIV-I p24, LOG VIRUS DILUTION -2” value (HIV-I; drug 30 μM) was 2/2 and the “wells positive for HIV-I p24, LOG VIRUS DILUTION -3” value (HIV-I; drug 30 μM) was 1/2. For the same molecule, the “wells positive for HIV-I p24, LOG VIRUS DILUTION -4” value (HIV-I; drug 30 μM) was 0/2, the “wells positive for HIV-I p24, LOG VIRUS DILUTION -5” value (HIV-I; drug 30 μM) was 0/2 and the “wells positive for HIV-I p24, LOG VIRUS DILUTION -6” value (HIV-I; drug 30 μM) was 0/2. The TITER (HIV-I; drug 100 μM) was 300, the “wells positive for HIV-I p24, LOG VIRUS DILUTION -1” value (HIV-I; drug 100 μM) was 2/2 and the “wells positive for HIV-I p24, LOG VIRUS DILUTION -2” value (HIV-I; drug 100 μM) was 2/2. The “wells positive for HIV-I p24, LOG VIRUS DILUTION -3” value (HIV-I; drug 100 μM) was 0/2, the “wells positive for HIV-I p24, LOG VIRUS DILUTION -4” value (HIV-I; drug 100 μM) was 0/2 and the “wells positive for HIV-I p24, LOG VIRUS DILUTION -5” value (HIV-I; drug 100 μM) was 0/2. The “wells positive for HIV-I p24, LOG VIRUS DILUTION -6” value (HIV-I; drug 100 μM) was 0/2, the TITER (HIV-I; drug 300 μM) was 10 and the “wells positive for HIV-I p24, LOG VIRUS DILUTION -1” value (HIV-I; drug 300 μM) was 0/2. For the same molecule, the “wells positive for HIV-I p24, LOG VIRUS DILUTION -2” value (HIV-I; drug 300 μM) was 0/2, the “wells positive for HIV-I p24, LOG VIRUS DILUTION -3” value (HIV-I; drug 300 μM) was 0/2 and the “wells positive for HIV-I p24, LOG VIRUS DILUTION -4” value (HIV-I; drug 300 μM) was 0/2. The “wells positive for HIV-I p24, LOG VIRUS DILUTION -5” value (HIV-I; drug 300 μM) was 0/2, the “wells positive for HIV-I p24, LOG VIRUS DILUTION -6” value (HIV-I; drug 300 μM) was 0/2 and the TITER (HIV-I; drug 1000 μM) was 10. The “wells positive for HIV-I p24, LOG VIRUS DILUTION -1” value (HIV-I; drug 1000 μM) was 0/2, the “wells positive for HIV-I p24, LOG VIRUS DILUTION -2” value (HIV-I; drug 1000 μM) was 0/2 and the “wells positive for HIV-I p24, LOG VIRUS DILUTION -3” value (HIV-I; drug 1000 μM) was 0/2. The “wells positive for HIV-I p24, LOG VIRUS DILUTION -4” value (HIV-I; drug 1000 μM) was 0/2, the “wells positive for HIV-I p24, LOG VIRUS DILUTION -5” value (HIV-I; drug 1000 μM) was 0/2 and the “wells positive for HIV-I p24, LOG VIRUS DILUTION -6” value (HIV-I; drug 1000 μM) was 0/2.
